Structures are written as SMILES.

The test has as its system Meloidogyne incognita. The experiment in a line: Meloidogyne incognita test: gall rating on cucumber plants in pots after soil application. Format: in vivo. On the set-up: key: 0: no galls; 1: very few small galls; 2: numerous small galls; 3: numerous small galls of which some are grown together; 4: numerous small and some big galls; 25% of roots severely galled; 6: 50% of roots severely galled; 75% of roots severely galled; 8: no healthy roots but plant is still green; 9: roots rotting and plant dying; 10: plant and roots dead. The settings on record: 1000 ppm applied to soil inoculated with 5000 eggs & J2s; cucumber seedlings; rated 30 days after application; 0-10 scale (Zeck 1971); untreated check up to 8. The protocol:
Meloidogyne incognita Test:
The trial pots were filled with soil containing a mixture of sand:soil:cocopeat in a ratio of 1:1:1. To the soil of each pot 5 mL of a nematode suspension (Meloidogyne incognita, mix of 5000 eggs & J2s) was added. One hour later the respective test compound at the stated concentration was applied to each pot. 10 days old cucumber seedlings were transplanted into the pots one day after the application. The cucumber plants were allowed to grow at a temperature of 27° C. under greenhouse conditions. The evaluation of the gall rating was recorded 30 days after the application. The plants were carefully uprooted and the roots were thoroughly washed. The gall rating was done on a 0-10 scale as described by Zeck (1971) and shown below: • 0=no galls • 1=very few small galls • 2=numerous small galls • 3=numerous small galls of which some are grown together • 4=numerous small and some big galls • 5=25% of roots severely galled • 6=50% of roots severely galled • 7=75% of roots severely galled • 8=no healthy roots but plant is still green • 9=roots rotting and plant dying • 10=plant and roots dead
Compound `O=C(NS(=O)(=O)c1cc(Cl)ccc1Cl)c1cn(-c2cc(Cl)cc(Cl)c2)nn1` [Compound 2, 1-(3,5-dichlorophenyl)-N-((2,5-dichlorophenyl)sulfonyl)-1H-1,2,3-triazole-4-carboxamide] yielded a gall rating scale of 4. The compound `Cc1c(C(=O)NS(=O)(=O)c2ccccc2Cl)nnn1-c1cc(Cl)cc(Cl)c1` [Compound 7, N-((2-chlorophenyl)sulfonyl)-1-(3,5-dichlorophenyl)-5-methyl-1H-1,2,3-triazole-4-carboxamide] gave a gall rating scale of 4. In turn, `Cc1c(C(=O)NS(=O)(=O)c2cc(Cl)ccc2Cl)nnn1-c1cc(Cl)cc(Cl)c1` [Compound 8, 1-(3,5-dichlorophenyl)-N-((2,5-dichlorophenyl)sulfonyl)-5-methyl-1H-1,2,3-triazole-4-carboxamide] registered a gall rating scale of 4. Regarding `Cc1c(C(=O)NS(=O)(=O)c2ccccc2OC(F)(F)F)nnn1-c1cc(Cl)cc(Cl)c1` [Compound 17], the gall rating scale is listed as 4. As for `Cc1c(C(=O)NS(=O)(=O)c2ccc(F)cc2)nnn1-c1cc(Cl)cc(Cl)c1` [Compound 25], the gall rating scale came out at 4. Next, `Cc1c(C(=O)NS(=O)(=O)c2cc(C(F)(F)F)ccc2Cl)nnn1-c1ccc(Cl)cc1Cl` [Compound 33]: 4; `O=C(NS(=O)(=O)c1ccccc1)c1nnn(-c2cc(Cl)cc(Cl)c2)c1C(F)(F)F` [Compound 35, 1-(3,5-dichlorophenyl)-N-(phenylsulfonyl)-5-(trifluoromethyl)-1H-1,2,3-triazole-4-carboxamide]: 4; `O=C(NS(=O)(=O)c1c(F)cccc1F)c1nnn(-c2ccc(Cl)cc2C(F)(F)F)c1C(F)(F)F` [Compound 52]: 4. Take `COc1ccc(Cl)c(S(=O)(=O)NC(=O)c2nnn(-c3ccc(Cl)cc3Cl)c2C)c1` [Compound 56]: the gall rating scale was 4.

Turning to `COc1ccc(Cl)c(S(=O)(=O)NC(=O)c2nnn(-c3ccc(Cl)cc3C(F)(F)F)c2C(F)(F)F)c1` [Compound 57], the gall rating scale was 4. `COc1ccc(Cl)c(S(=O)(=O)NC(=O)c2nnn(-c3ccc(Cl)cc3C(F)(F)F)c2C)c1` [Compound 61]: the gall rating scale is given as 4.

Regarding `O=C(NS(=O)(=O)c1cc(C(F)(F)F)ccc1Cl)c1nnn(-c2ccc(C(F)(F)F)cc2Cl)c1C(F)(F)F` [Compound 76], the gall rating scale is 4. The compound `Cc1c(C(=O)NS(=O)(=O)c2ccccc2F)nnn1-c1cc(Cl)cc(C(F)(F)F)c1` [Compound 96] had a gall rating scale of 4. `Cc1c(C(=O)NS(=O)(=O)c2c(F)cc(F)cc2F)nnn1-c1cc(Cl)cc(C(F)(F)F)c1` [Compound 97] registered a gall rating scale of 4. As for `COc1ccc(Cl)c(S(=O)(=O)NC(=O)c2nnn(-c3cc(C(F)(F)F)cc(C(F)(F)F)c3)c2C)c1` [Compound 108], the gall rating scale was found to be 4. Next, `Cc1c(C(=O)NS(=O)(=O)c2ccccc2C(F)(F)F)nnn1-c1ccc(OC(F)(F)F)cc1Cl` [Compound 132]: 4; `COc1ccc(Cl)c(S(=O)(=O)NC(=O)c2nnn(-c3ccc(OC(F)(F)F)cc3Cl)c2C)c1` [Compound 133]: 4; `Cc1c(C(=O)NS(=O)(=O)c2cc(Cl)ccc2Cl)nnn1-c1ccc(OC(F)(F)F)cc1Cl` [Compound 134, 1-(2-chloro-4-(trifluoromethoxy)phenyl)-N-((2,5-dichlorophenyl)sulfonyl)-5-methyl-1H-1,2,3-triazole-4-carboxamide]: 4.

`Cc1c(C(=O)NS(=O)(=O)c2cc(C(F)(F)F)ccc2Cl)nnn1-c1ccc(OC(F)(F)F)cc1Cl` [Compound 135] showed a gall rating scale of 4.

Take `Cc1c(C(=O)NS(=O)(=O)c2cc(F)cc(F)c2)nnn1-c1ccc(OC(F)(F)F)cc1Cl` [Compound 140]: the gall rating scale is recorded as 4. Next, `Cc1c(C(=O)NS(=O)(=O)c2ccccc2F)nnn1-c1ccc(OC(F)(F)F)cc1Cl` [Compound 143]: 4; `Cc1c(C(=O)NS(=O)(=O)c2cc(Cl)ccc2F)nnn1-c1ccc(OC(F)(F)F)cc1Cl` [Compound 168, N-((5-chloro-2-fluorophenyl)sulfonyl)-1-(2-chloro-4-(trifluoromethoxy)phenyl)-5-methyl-1H-1,2,3-triazole-4-carboxamide]: 4; `O=C(NS(=O)(=O)c1cc(C(F)(F)F)ccc1Cl)c1nnn(-c2ccc(OC(F)(F)F)cc2Cl)c1C(F)(F)F` [Compound 171, 1-(2-chloro-4-(trifluoromethoxy)phenyl)-N-((2-chloro-5-(trifluoromethyl)phenyl)sulfonyl)-5-(trifluoromethyl)-1H-1,2,3-triazole-4-carboxamide]: 4. The compound `O=C(NS(=O)(=O)c1ccccc1C(F)(F)F)c1nnn(-c2ccc(Cl)cc2Cl)c1C(F)(F)F` [Compound 209] yielded a gall rating scale of 4.

For `O=C(NS(=O)(=O)c1cc(C(F)(F)F)ccc1Cl)c1nnn(-c2ccc(Cl)cc2Cl)c1C(F)(F)F` [Compound 210], the gall rating scale is given as 4. Compound `Cc1ccc(C)c(S(=O)(=O)NC(=O)c2nnn(-c3ccc(OC(F)(F)F)cc3Cl)c2C)c1` [Compound 217] came in with a gall rating scale of 4.

Regarding `O=C(NS(=O)(=O)c1ccc(F)cc1F)c1nnn(-c2ccc(Cl)cc2Cl)c1C(F)(F)F` [Compound 218], the gall rating scale came out at 4. As for `O=C(NS(=O)(=O)c1cc(C(F)(F)F)ccc1Cl)c1nnn(-c2ccc(OC(F)(F)F)cc2Cl)c1C1CC1` [Compound 227, 1-(2-chloro-4-(trifluoromethoxy)phenyl)-N-((2-chloro-5-(trifluoromethyl)phenyl)sulfonyl)-5-cyclopropyl-1H-1,2,3-triazole-4-carboxamide], the gall rating scale is 4. In turn, `O=C(NS(=O)(=O)c1ccccc1C(F)(F)F)c1nnn(-c2ccc(OC(F)(F)F)cc2Cl)c1C1CC1` [Compound 228] had a gall rating scale of 4. With `O=C(NS(=O)(=O)c1cc(Cl)ccc1Cl)c1nnn(-c2ccc(OC(F)(F)F)cc2Cl)c1C1CC1` [Compound 229, 1-(2-chloro-4-(trifluoromethoxy)phenyl)-5-cyclopropyl-N-((2,5-dichlorophenyl)sulfonyl)-1H-1,2,3-triazole-4-carboxamide], the gall rating scale was found to be 4. In turn, `COc1ccc(Cl)c(S(=O)(=O)NC(=O)c2nnn(-c3ccc(OC(F)(F)F)cc3Cl)c2C2CC2)c1` [Compound 230, 1-(2-chloro-4-(trifluoromethoxy)phenyl)-N-((2-chloro-5-methoxyphenyl)sulfonyl)-5-cyclopropyl-1H-1,2,3-triazole-4-carboxamide] had a gall rating scale of 4. Next, `CCc1c(C(=O)NS(=O)(=O)c2cc(C(F)(F)F)ccc2Cl)nnn1-c1ccc(Cl)cc1Cl` [Compound 231]: 4; `Cc1c(C(=O)NS(=O)(=O)c2cc(C(F)(F)F)ccc2F)nnn1-c1ccc(Cl)cc1Cl` [Compound 240]: 4. Compound `Cc1c(C(=O)NS(=O)(=O)c2ccccc2C(F)(F)F)nnn1-c1ccc(Cl)cc1Cl` [Compound 241] had a gall rating scale of 4. On to `COc1ccc(Cl)c(S(=O)(=O)NC(=O)c2nnn(-c3ccc(F)cc3Cl)c2C)c1` [Compound 242], for which the gall rating scale was determined as 4. Next, `Cc1c(C(=O)NS(=O)(=O)c2ccccc2C(F)(F)F)nnn1-c1ccc(F)cc1Cl` [Compound 245]: 4. As for `Cc1c(C(=O)NS(=O)(=O)c2ccccc2F)nnn1-c1ccc(F)cc1Cl` [Compound 246], the gall rating scale is 4. In turn, `Cc1c(C(=O)NS(=O)(=O)c2cc(Cl)c(F)cc2F)nnn1-c1ccc(F)cc1Cl` [Compound 250] had a gall rating scale of 4. Turning to `Cc1c(C(=O)NS(=O)(=O)c2cc(C(F)(F)F)ccc2Cl)nnn1-c1ccc(F)cc1Cl` [Compound 252, 1-(2-chloro-4-fluorophenyl)-N-((2-chloro-5-(trifluoromethyl)phenyl)sulfonyl)-5-methyl-1H-1,2,3-triazole-4-carboxamide], the gall rating scale is 4. Consider `Cc1c(C(=O)NS(=O)(=O)c2cc(C(F)(F)F)ccc2Cl)nnn1-c1cc(Cl)cc(Cl)c1` [Compound 253], for which the gall rating scale was 4. `Cc1c(C(=O)NS(=O)(=O)c2ccccc2C(F)(F)F)nnn1-c1cc(Cl)cc(Cl)c1` [Compound 254] showed a gall rating scale of 4. For `Cc1c(C(=O)NS(=O)(=O)c2ccccc2C(F)(F)F)nnn1-c1cc(Cl)ccc1Cl` [Compound 259, 1-(2,5-dichlorophenyl)-5-methyl-N-((2-(trifluoromethyl)phenyl)sulfonyl)-1H-1,2,3-triazole-4-carboxamide], the gall rating scale is recorded as 4.

As to `COc1ccc(Cl)c(S(=O)(=O)NC(=O)c2nnn(-c3ccc(C#N)cc3Cl)c2C)c1` [Compound 260], the gall rating scale was 4. On to `Cc1c(C(=O)NS(=O)(=O)c2cc(C(F)(F)F)ccc2Br)nnn1-c1ccc(Cl)cc1Cl` [Compound 261], for which the gall rating scale is 4. In turn, `Cc1c(C(=O)NS(=O)(=O)c2cc(F)ccc2F)nnn1-c1ccc(C#N)cc1Cl` [Compound 269] showed a gall rating scale of 4. Next, `Cc1c(C(=O)NS(=O)(=O)c2ccccc2C(F)(F)F)nnn1-c1ccc(C#N)cc1Cl` [Compound 271]: 4.

The record behind these values is patent US20250129031A1, “1,2,3-TRIAZOLE CARBONYL SULFONYLAMIDE COMPOUNDS AND USE THEREOF” (PI INDUSTRIES LTD., priority 2022, published 2025).
